The target of data set [1] is T1, BuChE derived from human serum (Homo sapiens, UniProt P06276).
T1 construct: BuChE derived from human serum (Sigma Chemical, Milan, Italy); purchased Sigma Chemical, Milan, Italy; host or cells: human serum
As to the kind of experiment: biochemical. To be noted: ± SEM; 20 min preincubation at 37°C, pH 8.0; read-out: IC50 hBuChE. The data set is classed as biochemical.

Data set [2] concerns SH-SY5Y cells. As to the kind of experiment: Aβ1-42 oligomer-induced cytotoxicity, MTT assay, SH-SY5Y cells. The data set is classed as cell-based. Conditions: Homo sapiens; for IC50: 3 h, read-out: IC50 Aβ1-42 oligomer toxicity SH-SY5Y cells; for inhibition at 30 µM: read-out: toxicity inhibition. (Tetrazolium dyes change colour on reduction, which living cells bring about.)
For data set [3], the system named is THP-1 cells. As to the kind of experiment: Aβ1-42 oligomer-induced cytotoxicity, MTT assay, THP-1 cells. The data set is classed as cell-based. To be noted: Homo sapiens, read-out: IC50 Aβ1-42 oligomer toxicity THP-1 cells.
For data set [4], the system named is SH-SY5Y cells. As to the kind of experiment: Aβ25-35 peptide-induced cytotoxicity, MTT assay, SH-SY5Y cells. Conditions: 1–30 μmol/L, Aβ25-35 5 μmol/L, 3 h.
In data set [5] the target is T2, BACE1 (Homo sapiens, UniProt P56817). Nature of the data set: Inhibition of BACE1 (FRET assay). The data set is classed as biochemical. Conditions: ± SEM, Panvera peptide substrate, pH 4.5.
Data set [6] deals with SH-SY5Y cells. As to the kind of experiment: Aβ1-42 oligomer binding to the cell surface (Congo red assay), SH-SY5Y cells. To be noted: compound 30 μmol/L, Aβ1-42 oligomers 5 μmol/L, 30 min cotreatment. The data set is classed as cell-based, human. The method, then: (§1) SH-SY5Y and THP-1 cells were seeded in 96-well plates at 5 × 10^3 cells/well and 5 × 10^4 cells/well, respectively, for 24 h. At the end of incubation, the medium was changed with a fresh one with Aβ1-42 oligomer (5 μmol/L) and various compounds at 30 μmol/L for 30 min and then washed twice with PBS. The residual Aβ1-42 oligomer cell complex was stained with 1 μmol/L of Congo red (CR) in PBS for 20 min and measured with a spectrophotometer (TECAN®, GENios) at 540 nm (bound CR). CR values are reported as percent increases in treated cells versus untreated cells.

Data set [7] has as its system SH-SY5Y cells. Nature of the data set: Total antioxidant activity in membrane and cytosolic fractions (ABTS decolorization). The data set is classed as cell-based, human. To be noted: SH-SY5Y treated 2 h, vs untreated cells.
Another data set has as its target T3, Aβ1-42 (Homo sapiens, UniProt P05067).
T3 construct: 1,1,1,3,3,3-hexafluoro-2-propanol pretreated Aβ1-42 samples (Bachem AG, Switzerland); purchased Bachem AG, Switzerland
Nature of the data set: biochemical. Conditions: ± SEM; 50 μmol/L Aβ, 30°C, 24 h, ThT; highest tested concentration 50 μmol/L; read-out: IC50 Aβ1-42 self-aggregation.

Data set [8] relates to SH-SY5Y cells. As to the kind of experiment: t-BuOOH-induced intracellular ROS formation (DCFH-DA, DHE). To be noted: 3–30 μmol/L, 3 h pretreatment, t-BuOOH 50 μmol/L. The data set is classed as cell-based, human. The method, then:
As above, the intracellular hydrogen peroxide and superoxide anion formation induced by tert-butyl hydroperoxide (t-BuOOH) at SH-SY5Y cell level was determined using, respectively, the probes DCFH-DA and DHE. Briefly, SH-SY5Y cells were cultured in 96-well microtiter plates at 3 × 10^4 cells/well for 24 h. The medium was then removed and the cells were treated for 3 h with various concentrations of compounds (3–30 μmol/L) at 37°C. After treatment, the cells were washed with PBS and then incubated with DCFH-DA (5 μmol/L) or DHE (10 μmol/L) in PBS at 37°C in 5% CO2 for 30 min. After removal of the probes and further washing, the cells were incubated with t-BuOOH (50 μmol/L) in PBS for 30 min. At the end of incubation, the green or red fluorescence of the cells from each well was measured with a spectrofluorometer (TECAN®, GENios). The results are expressed as fold increases in intracellular ROS evoked by exposure to t-BuOOH.

In data set [9] the test system is THP-1 cells. As to the kind of experiment: Aβ1-42 oligomer binding to the cell surface (Congo red assay), THP-1 cells. Conditions: compound 30 μmol/L, Aβ1-42 oligomers 5 μmol/L, 30 min cotreatment. The data set is classed as cell-based, human. The method, then:
as §1

Data set [10] has as its system SH-SY5Y cells. Nature of the data set: Aβ1-42 oligomer-induced intracellular ROS formation (DCFH-DA, DHE). The data set is classed as cell-based, human. Conditions: 3–30 μmol/L, 3 h pretreatment, Aβ1-42 oligomers 5 μmol/L. The method, then: The intracellular hydrogen peroxide and superoxide anion formation induced by Aβ1-42 oligomer at SH-SY5Y cell level was determined using, respectively, the probe 2′,7′-dichlorodihydrofluorescein diacetate (DCFH-DA, λexc = 485 nm, λem = 535 nm), and dihydroethidium (DHE, λexc = 380 nm, λem = 445 nm). SH-SY5Y cells were cultured in BD Falcon™ 8-well Culture slides (surface area 0.7 cm^2/well) at 1 × 10^4 cells/well for 24 h. The cells were then treated for 3 h with various concentrations of compounds (3–30 μmol/L) at 37°C prior to the treatment of 3 h with Aβ1-42 oligomer (5 μmol/L). At the end of treatment, the cells were washed and incubated with DCFH-DA (5 μmol/L) or DHE (10 μmol/L) for 30 min in the dark. After removal of the probes, cells were washed with PBS and incubated with DMEM serum free for 1 h at 37°C. Intracellular ROS formation was measured under a fluorescence microscope (Zeiss Axio Imager M1). Fluorescence images were captured with an AxioVision image recording system computer. Four randomly selected areas with 50–100 cells in each were analyzed and the values obtained are expressed as fold increases in hydrogen peroxide and superoxide anion versus untreated cells.

In data set [11] the test system is THP-1 cells. As to the kind of experiment: Aβ1-42 oligomer-induced NO and TNFα release. The data set is classed as cell-based, human. To be noted: 30 μmol/L. The method, then:
THP-1 cells were seeded in 96-well plates at 5 × 10^4 cells/well for 24 h. At the end of incubation, the medium was changed with a fresh one with AP2469 30 μmol/L for 3 h. The cells were then washed with PBS and incubated for a further 12 h with Aβ1-42 oligomer (5 μmol/L). The content of each well was then removed and centrifuged at 2500g for 10 min, and the supernatant was frozen at −20°C for the subsequent analysis of released NO and tumor necrosis factor alpha (TNFα). To determine the NO levels, 100 μL of supernatant was incubated with 100 μL of Griess reagent (Sigma Aldrich) in the dark at room temperature for 15 min. The intensity of the color that developed was then measured at 540 nm using a spectrophotometer (TECAN®, GENios). Values are reported as percent increases in treated cells versus untreated cells. The TNFα levels in 100 μL of supernatant were determined by Ray Bio® ELISA kit according to the manufacturer's instructions (Ray Biotech, Inc., GA). The concentration of TNFα levels was calculated from a TNFα standard curve standard of 25–6000 pg/mL and the values are reported as percent increases in treated cells versus untreated cells.

A further data set deals with human recombinant AChE (Homo sapiens, UniProt P22303). Nature of the data set: biochemical. To be noted: ± SEM; 20 min preincubation at 37°C, pH 8.0; read-out: IC50 hAChE.
The subject of data set [12] is THP-1 cells. As to the kind of experiment: Aβ-induced toxicity (Aβ1-42 oligomers, Aβ25-35), MTT assay, THP-1 cells. The data set is classed as cell-based, human. To be noted: 1–30 μmol/L, Aβ 5 μmol/L, 3 h.
Data set [13] deals with T2, BACE1. Conditions: cited from earlier work.
In data set [14] the test system is hAChE-induced amyloid aggregation. Details: method as in Piazzi et al. [2003], [2007]. To be noted: at 100 μmol/L concentration; ref Piazzi et al. [2003], [2007]; cited from earlier work.
Setting [15] is: SH-SY5Y, ± SEM, 5 μmol/L Aβ1-42 oligomers, MTT, highest tested concentration 30 μmol/L.
Setting [16] is: THP-1, ± SEM, 5 μmol/L Aβ1-42 oligomers, 3 h, MTT, highest tested concentration 30 μmol/L.

Results on five molecules are retold here after PMC4184701 (Pharmacology Research & Perspectives, 2014).

Several values for one entry are separate records, joined by “and”; a condition that tells them apart may be missing. Equal entries are not always repeated. Where two headings read alike, the source gives them in different places. Bounds are passed on as bounds.

T3 sequence (P05067 672-713 limits assumed): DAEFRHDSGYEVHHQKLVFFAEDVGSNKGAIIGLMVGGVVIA
T2 sequence (P56817 46-501): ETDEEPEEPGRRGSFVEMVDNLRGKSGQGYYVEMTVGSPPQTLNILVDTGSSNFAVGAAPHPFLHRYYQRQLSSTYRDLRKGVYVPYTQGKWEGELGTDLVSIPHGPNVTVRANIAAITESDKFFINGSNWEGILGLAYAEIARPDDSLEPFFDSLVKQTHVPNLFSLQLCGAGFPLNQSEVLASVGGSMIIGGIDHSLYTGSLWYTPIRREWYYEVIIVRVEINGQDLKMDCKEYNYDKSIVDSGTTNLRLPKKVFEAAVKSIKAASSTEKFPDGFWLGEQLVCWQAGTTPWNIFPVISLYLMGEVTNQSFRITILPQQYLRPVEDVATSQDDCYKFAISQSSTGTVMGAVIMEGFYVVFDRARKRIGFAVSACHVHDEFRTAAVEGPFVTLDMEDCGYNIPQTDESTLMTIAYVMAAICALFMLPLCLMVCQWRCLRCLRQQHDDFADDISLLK
T1 sequence (P06276 29-602): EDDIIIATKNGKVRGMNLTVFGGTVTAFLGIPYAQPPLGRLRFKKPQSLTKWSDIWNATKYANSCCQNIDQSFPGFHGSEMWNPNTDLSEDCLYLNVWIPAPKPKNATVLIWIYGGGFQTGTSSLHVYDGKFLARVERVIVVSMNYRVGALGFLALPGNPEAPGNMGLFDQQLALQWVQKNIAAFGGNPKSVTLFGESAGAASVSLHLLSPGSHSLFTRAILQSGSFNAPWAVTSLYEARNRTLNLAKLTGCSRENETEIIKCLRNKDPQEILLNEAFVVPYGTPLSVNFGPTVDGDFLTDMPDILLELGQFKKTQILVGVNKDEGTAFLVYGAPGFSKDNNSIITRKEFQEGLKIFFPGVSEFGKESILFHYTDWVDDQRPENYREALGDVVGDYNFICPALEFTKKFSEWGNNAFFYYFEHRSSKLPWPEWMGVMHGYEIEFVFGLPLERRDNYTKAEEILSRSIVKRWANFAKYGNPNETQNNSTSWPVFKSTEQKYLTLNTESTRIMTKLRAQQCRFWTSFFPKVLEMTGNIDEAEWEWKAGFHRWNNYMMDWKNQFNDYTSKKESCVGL
Chain of human recombinant AChE (P22303 32-614): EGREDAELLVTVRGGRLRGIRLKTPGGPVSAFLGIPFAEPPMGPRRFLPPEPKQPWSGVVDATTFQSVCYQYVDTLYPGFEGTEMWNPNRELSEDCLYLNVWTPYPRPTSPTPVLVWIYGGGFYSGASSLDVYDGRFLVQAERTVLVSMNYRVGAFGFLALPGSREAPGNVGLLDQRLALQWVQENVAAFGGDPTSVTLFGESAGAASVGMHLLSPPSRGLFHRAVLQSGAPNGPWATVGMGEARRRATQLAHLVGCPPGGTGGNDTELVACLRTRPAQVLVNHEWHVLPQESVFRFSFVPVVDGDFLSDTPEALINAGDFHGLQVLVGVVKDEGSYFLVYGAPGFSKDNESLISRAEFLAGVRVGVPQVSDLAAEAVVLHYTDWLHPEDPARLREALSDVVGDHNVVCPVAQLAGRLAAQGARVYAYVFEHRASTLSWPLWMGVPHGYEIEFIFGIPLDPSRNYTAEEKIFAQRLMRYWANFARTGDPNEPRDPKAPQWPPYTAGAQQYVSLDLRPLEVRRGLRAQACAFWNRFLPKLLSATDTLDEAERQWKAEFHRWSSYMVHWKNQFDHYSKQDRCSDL

As a reminder, the inhibition is the percentage by which the read-out fell short of the control. As for `CCN(Cc1ccccc1)Cc1ccc(-c2cc3cc(O)c(O)cc3oc2=O)cc1` [AP2469, 3-{4-[(Benzylethylamino)-methyl]phenyl}-6,7-dihydroxychromen-2-one], the IC50 in [1] is 124 ± 13 µM; with SH-SY5Y cells [2] (setting [15]) it was 7.5 ± 0.72 µM; with THP-1 cells [3] (setting [16]) it was 8.18 ± 0.51 µM; on BACE1 [5], 6.5 µM and 6.49 µM; at Aβ1-42, 21.7 ± 3.4 µM; at human recombinant AChE, 8.6 ± 0.21 µM. In addition, the inhibition at 30 µM in the data set with SH-SY5Y cells [2] (at 30 μmol/L, Aβ1-42 oligomers 5 μmol/L, SH-SY5Y cells) amounted to 93%. Also, the “cytotoxicity elicited by Aβ25-35 peptide in SH-SY5Y cells” value with SH-SY5Y cells [4] was “dose-dependent decrease”. Besides, in the data set with SH-SY5Y cells [6], the “binding of Aβ1-42 oligomers with SH-SY5Y cells (CR assay)” value is recorded as “significantly reduced”. Besides, the “total antioxidant activity (TAA), membrane fraction” value in the data set on SH-SY5Y cells [7] (3–30 μmol/L) was “significant only at the highest tested concentration”. In the data set with SH-SY5Y cells [7] (all tested concentrations (3–30 μmol/L)), the “total antioxidant activity (TAA), cytosolic fraction” value is listed as “significant TAA increase”. In addition, the “ROS formation induced by t-BuOOH” value in the data set with SH-SY5Y cells [8] is “significantly reduced”. The “binding of Aβ1-42 oligomers with THP-1 cells (CR assay)” value in the data set on THP-1 cells [9] is on record as “significantly reduced”. Moreover, in the data set with SH-SY5Y cells [10], the “Aβ1-42 oligomer-induced hydrogen peroxide and superoxide anion formation” value is listed as “significantly inhibited”. Moreover, the “Aβ1-42 oligomer-induced TNFα release” value with THP-1 cells [11] (ELISA) was “inhibited”. Moreover, in the data set on THP-1 cells [11] (Griess reagent), the “Aβ1-42 oligomer-induced NO release” value is “reduced”. Further, in the data set with THP-1 cells [12], the “Aβ-induced toxicity in THP-1 cells” value is listed as “significant inhibitor effects”.

As to `c1ccc2c(NCCCCCCCNc3c4c(nc5ccccc35)CCCC4)c3c(nc2c1)CCCC3` [bis(7)-tacrine], the IC50 on BACE1 [13] (noncompetitive BACE1 inhibitor, ref Fu et al. [2008], read-out: BACE1 inhibitory activity) is 7.5 µM.

For the molecule `CCN(Cc1ccccc1)Cc1ccc(-c2cc3cc(OC)c(OC)cc3oc2=O)cc1` [AP2243], the IC50 in [1] was 118 ± 16 µM; with SH-SY5Y cells [2] (setting [15]) it was > 30 µM; in the data set on THP-1 cells [3] (setting [16]) it was > 30 µM; on BACE1 [5], 0.24 ± 0.03 µM; on Aβ1-42, > 50 µM. Further, the “inhibition of hAChE-induced amyloid aggregation” value in data set [14] is 38%. Besides, in the data set on SH-SY5Y cells [6], the “binding of Aβ1-42 oligomers with SH-SY5Y cells (CR assay)” value was “did not modify”. The “binding of Aβ1-42 oligomers with THP-1 cells (CR assay)” value in the data set with THP-1 cells [9] is reported as “did not modify”.

As to `COc1cc2cc(-c3ccc(CN(C)Cc4ccccc4)cc3)c(=O)oc2cc1OC` [AP2238, 3-(4-{[Benzyl(methyl)amino]methyl}-phenyl)-6,7-dimethoxy-2H-2-chromenone], the “inhibition of hAChE-induced amyloid aggregation” value in data set [14] is listed as 35%. The IC50 on Aβ1-42 was > 50 µM.

On to `COc1ccc2c3c1O[C@H]1C[C@@H](O)C=C[C@@]31CCN(C)C2` [Galantamine, reference compound], for which the IC50 with SH-SY5Y cells [2] (SH-SY5Y) was 7.99 ± 0.91 µM; with THP-1 cells [3] (THP-1, 3 h), > 30 µM; at BACE1 [13] (not active at the highest tested concentration (5 μmol/L), ref Mancini et al. [2007], read-out: IC50 BACE1), > 5 µM; at Aβ1-42, > 50 µM. In the data set on SH-SY5Y cells [2] (SH-SY5Y), the inhibition at 30 µM was found to be 58%. The “cytotoxicity elicited by Aβ25-35 peptide in SH-SY5Y cells” value in the data set with SH-SY5Y cells [4] was “dose-dependent decrease”.
